One assay deals with L-lactate dehydrogenase (Plasmodium falciparum (isolate CDC / Honduras), UniProt Q27743). As to the kind of experiment: Lactate Dehydrogenase Inhibition Assay. The settings on record: pH 7.5; 25 °C. An excerpt:
(§1) An LDH enzymatic assay developed for high throughput format was used. The dehydrogenase reaction was run in the lactate to pyruvate direction and coupled with the ability of diaphorase to reduce p-iodonitrotetrazolium violet using the NADH generated in the conversion of lactate to pyruvate. The progression of the coupling reaction was monitored as the increase of absorbance at 492 nm. Positive hits were subjected to additional analysis to determine IC50 values.

For assay [1], the target named is L-lactate dehydrogenase B chain (Homo sapiens, UniProt P07195). As to the kind of experiment: Lactate Dehydrogenase Inhibition Assay.
Text: as §1

Chain of L-lactate dehydrogenase (Q27743 whole entry): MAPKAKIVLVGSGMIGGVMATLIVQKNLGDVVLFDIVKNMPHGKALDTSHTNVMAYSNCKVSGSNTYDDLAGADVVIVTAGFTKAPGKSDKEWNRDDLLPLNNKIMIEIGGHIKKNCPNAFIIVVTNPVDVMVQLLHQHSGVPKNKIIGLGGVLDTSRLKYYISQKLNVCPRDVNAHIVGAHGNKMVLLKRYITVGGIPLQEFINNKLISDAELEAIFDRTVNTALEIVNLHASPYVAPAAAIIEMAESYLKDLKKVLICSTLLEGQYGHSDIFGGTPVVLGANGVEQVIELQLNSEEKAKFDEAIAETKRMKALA
Chain of L-lactate dehydrogenase B chain (P07195 whole entry): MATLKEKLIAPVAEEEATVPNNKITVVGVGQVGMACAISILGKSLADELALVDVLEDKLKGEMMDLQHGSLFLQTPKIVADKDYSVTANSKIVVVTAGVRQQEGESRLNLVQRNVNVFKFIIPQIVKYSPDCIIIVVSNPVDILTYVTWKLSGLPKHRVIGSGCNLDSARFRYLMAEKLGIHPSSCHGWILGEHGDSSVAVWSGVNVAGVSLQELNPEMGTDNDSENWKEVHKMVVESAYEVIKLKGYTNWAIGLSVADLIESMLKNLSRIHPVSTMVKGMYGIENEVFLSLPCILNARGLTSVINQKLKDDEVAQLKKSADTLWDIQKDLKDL

One may read the IC50 as the concentration that gives 50% inhibition. What is called Ki is a measure of affinity in units of concentration, obtained from inhibition or displacement. Consider `O=C(O)c1nsnc1O` [4-hydroxy-1,2,5-thiadiazole-3-carboxylic acid], for which, at L-lactate dehydrogenase, the IC50 was determined as 0.14 µM and the Ki came out at 0.29 µM. The IC50 in assay [1] stood at 10.3 µM.

As for `O=C(O)c1nonc1OC/C=C/c1ccccc1` [4-{[(2E)-3-phenylprop-2-en-1-yl]oxy}-1,2,5-oxadiazole-3-carboxylic acid], the IC50 (on L-lactate dehydrogenase; in assay [1]) was above 200 µM each time.

In the case of `O=C(O)c1cnn[nH]1` [1H-1,2,3-triazole-5-carboxylic acid], the IC50 was 98 µM against L-lactate dehydrogenase and above 200 µM in assay [1].

In the case of `CCOC(=O)c1nonc1O` [ethyl 4-hydroxy-1,2,5-oxadiazole-3-carboxylate], the IC50 (at L-lactate dehydrogenase; in assay [1]) was above 100 µM each time.

For `Cn1occ(C(=O)O)c1=O` [2-methyl-3-oxo-2,3-dihydro-1,2-oxazole-4-carboxylic acid], the IC50 (against L-lactate dehydrogenase; in assay [1]) was above 100 µM in each case.

For `O=C(O)c1nn(Cc2ccccc2)[nH]c1=O` [2-benzyl-5-hydroxy-2H-1,2,3-triazole-4-carboxylic acid], the IC50 (against L-lactate dehydrogenase; in assay [1]) was above 100 µM each time.

For the molecule `O=C(O)c1cnon1` [1,2,5-oxadiazole-3-carboxylic acid], the IC50 (at L-lactate dehydrogenase; in assay [1]) was above 200 µM in each case.

As for `O=C(O)c1nonc1NCCO` [4-[(2-hydroxyethyl)amino]-1,2,5-oxadiazole-3-carboxylic acid], the IC50 (against L-lactate dehydrogenase; in assay [1]) was above 200 µM throughout.

As to `O=C(O)c1noc(C(=O)O)c1O` [4-hydroxy-1,2-oxazole-3,5-dicarboxylic acid], the IC50 at L-lactate dehydrogenase is 81 µM; in assay [1] it was above 100 µM.

`COc1nsnc1C(=O)O` [4-methoxy-1,2,5-thiadiazole-3-carboxylic acid]: the IC50 (on L-lactate dehydrogenase; in assay [1]) was above 100 µM each time.

In the case of `CCOC(=O)c1co[nH]c1=O` [ethyl 3-hydroxy-1,2-oxazole-4-carboxylate], the IC50 (at L-lactate dehydrogenase; in assay [1]) was above 100 µM in each case.

Take `O=C(O)c1conc1O` [3-hydroxy-1,2-oxazole-4-carboxylic acid]: at L-lactate dehydrogenase, the midpoint of inhibition, the IC50, lay at 1.1 µM and the Ki was 0.47 µM. The midpoint of inhibition in assay [1], the IC50, lay at 54 µM.

`Cn1nnc(O)c1C(=O)O` [4-hydroxy-1-methyl-1H-1,2,3-triazole-5-carboxylic acid]: the IC50 (at L-lactate dehydrogenase; in assay [1]) was above 100 µM each time.

In the case of `Nc1nsnc1C(=O)O` [4-amino-1,2,5-thiadiazole-3-carboxylic acid], the IC50 (against L-lactate dehydrogenase; in assay [1]) was above 100 µM throughout.

For `O=C(O)Cc1no[nH]c1=O` [2-(4-hydroxy-1,2,5-oxadiazol-3-yl)acetic acid], the IC50 (against L-lactate dehydrogenase; in assay [1]) was above 200 µM throughout.

With `O=C(O)c1nonc1O` [4-hydroxy-1,2,5-oxadiazole-3-carboxylic acid], the IC50 on L-lactate dehydrogenase came out at 0.65 µM; in assay [1] it was 72.1 µM. Also, affinity at L-lactate dehydrogenase was put at a Ki of 0.21 µM.

In the case of `COc1nocc1C(=O)O` [3-methoxy-1,2-oxazole-4-carboxylic acid], the IC50 (at L-lactate dehydrogenase; in assay [1]) was above 100 µM each time.

Regarding `O=C(O)c1c(O)nnn1Cc1ccccc1` [1-benzyl-4-hydroxy-1H-1,2,3-triazole-5-carboxylic acid], the IC50 (against L-lactate dehydrogenase; in assay [1]) was above 100 µM throughout.

Consider `Cn1nc(O)c(C(=O)O)n1` [5-hydroxy-2-methyl-2H-1,2,3-triazole-4-carboxylic acid], for which the IC50 (against L-lactate dehydrogenase; in assay [1]) was above 100 µM in each case.

Turning to `CCOC(=O)c1c[nH]oc1=O` [ethyl 5-hydroxy-1,2-oxazole-4-carboxylate], the IC50 (against L-lactate dehydrogenase; in assay [1]) was above 100 µM each time.

Consider `COC(=O)c1c(C)[nH]oc1=O` [methyl 5-hydroxy-3-methyl-1,2-oxazole-4-carboxylate], for which the IC50 (against L-lactate dehydrogenase; in assay [1]) was above 100 µM each time.

On to `O=C(OCc1ccc(Cl)c(Cl)c1)c1no[nH]c1=O` [(3,4-dichlorophenyl)methyl 4-hydroxy-1,2,5-oxadiazole-3-carboxylate], for which the IC50 (at L-lactate dehydrogenase; in assay [1]) was above 200 µM in each case.

`CCOC(=O)c1nonc1OCc1ccc(OC)cc1` [ethyl 4-[(4-methoxyphenyl)methoxy]-1,2,5-oxadiazole-3-carboxylate]: the IC50 (at L-lactate dehydrogenase; in assay [1]) was above 200 µM in each case.

On to `Cc1o[nH]c(=O)c1C(=O)O` [3-hydroxy-5-methyl-1,2-oxazole-4-carboxylic acid], for which the IC50 (against L-lactate dehydrogenase; in assay [1]) was above 100 µM throughout.

In the case of `Nc1nonc1C(=O)O` [4-amino-1,2,5-oxadiazole-3-carboxylic acid], the IC50 (against L-lactate dehydrogenase; in assay [1]) was above 200 µM throughout.

Regarding `O=C(O)c1nocc1O` [4-hydroxy-1,2-oxazole-3-carboxylic acid], the IC50 is 16 µM on L-lactate dehydrogenase and above 100 µM in assay [1].

These data come from BindingDB's records for doi:10.1074/jbc.M402433200 (University of Bristol, 2004).
